According to patent publication US20180243273A1, “Composition for Intravesical Administration for Treating Bladder Pain” (priority 2017, published 2018):

Test: Storage of compositions with/without nitrogen-gassing and ascorbic acid, assay and impurities
Assay type: physicochemical
Settings: for Assay / Impurities: phosphate buffer
Method: A possible beneficial effect of nitrogen-gassing during manufacturing and storage was assessed. Selected compositions were manufactured by dissolution of API via stirring for 24 h and stored after treatment with/without nitrogen at 25° C. or 6° C. for up to 28 days.
The manufactured batches consisted of phosphate buffer and vitamin E TPGS and were compared to compositions containing ascorbic acid 1%, additionally. API was used at 0.01 wt.-%, 0.02 wt.-% or 0.04 w.-%. The compositions were saturated with API, where 10 mg, 20 mg or 40 mg were dissolved in 100 g buffer containing 0.5 wt.-%, wt.-1% or 2 wt.-% vitamin E TPGS, respectively. The compositions were transferred into polystyrene bottles and stored at 25° C. or 6° C. A part of the compositions was treated with nitrogen during manufacturing and gassed with nitrogen prior to sealing (see FIG. 18). The compositions were tested for assay and purity of API after manufacturing, as well as after 7, 14 and 28 days.

[1] = vitamin E TPGS 1%, no Asc., N2 +, API 0.02%, 25° C., t = 28 d
[2] = vitamin E TPGS 1%, no Asc., N2 +, API 0.02%, t = 0
[3] = vitamin E TPGS 1%, no Asc., N2 −, API 0.02%, 6° C., t = 7 d
[4] = vitamin E TPGS 1%, no Asc., N2 −, API 0.02%, 6° C., t = 14 d
[5] = vitamin E TPGS 1%, no Asc., N2 −, API 0.02%, 6° C., t = 28 d
[6] = vitamin E TPGS 1%, no Asc., N2 −, API 0.02%, 25° C., t = 7 d
[7] = vitamin E TPGS 1%, no Asc., N2 −, API 0.02%, 25° C., t = 14 d
[8] = vitamin E TPGS 1%, no Asc., N2 −, API 0.02%, 25° C., t = 28 d
[9] = vitamin E TPGS 1%, no Asc., N2 −, API 0.02%, t = 0
[10] = vitamin E TPGS 2%, Asc. 1%, N2 +, API 0.04%, 6° C., t = 7 d
[11] = vitamin E TPGS 2%, Asc. 1%, N2 +, API 0.04%, 6° C., t = 14 d
[12] = vitamin E TPGS 2%, Asc. 1%, N2 +, API 0.04%, 6° C., t = 28 d
[13] = vitamin E TPGS 2%, Asc. 1%, N2 +, API 0.04%, 25° C., t = 7 d
[14] = vitamin E TPGS 2%, Asc. 1%, N2 +, API 0.04%, 25° C., t = 14 d
[15] = vitamin E TPGS 2%, Asc. 1%, N2 +, API 0.04%, 25° C., t = 28 d
[16] = vitamin E TPGS 2%, Asc. 1%, N2 +, API 0.04%, t = 0
[17] = vitamin E TPGS 2%, Asc. 1%, N2 −, API 0.04%, 6° C., t = 7 d
[18] = vitamin E TPGS 2%, Asc. 1%, N2 −, API 0.04%, 6° C., t = 14 d
[19] = vitamin E TPGS 2%, Asc. 1%, N2 −, API 0.04%, 6° C., t = 28 d
[20] = vitamin E TPGS 2%, Asc. 1%, N2 −, API 0.04%, 25° C., t = 7 d
[21] = vitamin E TPGS 2%, Asc. 1%, N2 −, API 0.04%, 25° C., t = 14 d
[22] = vitamin E TPGS 2%, Asc. 1%, N2 −, API 0.04%, 25° C., t = 28 d
[23] = vitamin E TPGS 2%, Asc. 1%, N2 −, API 0.04%, t = 0
[24] = vitamin E TPGS 2%, no Asc., N2 +, API 0.04%, 6° C., t = 7 d
[25] = vitamin E TPGS 2%, no Asc., N2 +, API 0.04%, 6° C., t = 14 d
[26] = vitamin E TPGS 2%, no Asc., N2 +, API 0.04%, 6° C., t = 28 d
[27] = vitamin E TPGS 2%, no Asc., N2 +, API 0.04%, 25° C., t = 7 d
[28] = vitamin E TPGS 2%, no Asc., N2 +, API 0.04%, 25° C., t = 14 d
[29] = vitamin E TPGS 2%, no Asc., N2 +, API 0.04%, 25° C., t = 28 d
[30] = vitamin E TPGS 2%, no Asc., N2 +, API 0.04%, t = 0
[31] = vitamin E TPGS 2%, no Asc., N2 −, API 0.04%, 6° C., t = 7 d
[32] = vitamin E TPGS 2%, no Asc., N2 −, API 0.04%, 6° C., t = 14 d
[33] = vitamin E TPGS 2%, no Asc., N2 −, API 0.04%, 6° C., t = 28 d
[34] = vitamin E TPGS 2%, no Asc., N2 −, API 0.04%, 25° C., t = 7 d
[35] = vitamin E TPGS 2%, no Asc., N2 −, API 0.04%, 25° C., t = 14 d
[36] = vitamin E TPGS 2%, no Asc., N2 −, API 0.04%, 25° C., t = 28 d
[37] = vitamin E TPGS 2%, no Asc., N2 −, API 0.04%, t = 0

In the case of `CN(C)[C@]1(c2cccc(F)c2)CC[C@]2(CC1)c1[nH]c3ccccc3c1CCN2C(=O)/C=C/c1ccccc1` [API, cis-(E)-4-(3-fluorophenyl)-2′,3′,4′,9′-tetrahydro-N,N-dimethyl-2′-(1-oxo-3-phenyl-2-propenyl)-spiro[cyclohexane-1,1′[1H]-pyrido[3,4-b]indol]-4-amine], the Assay [1] is reported as 93.95 µg/mL, the Impurities [1] is reported as 0.85 % (a/a) and the Assay [2] is reported as 93.15 µg/mL. The Impurities [2] was 0.63 % (a/a), the Assay [3] was 92.96 µg/mL and the Impurities [3] was 0.66 % (a/a). For the same compound, the Assay [4] was 93.12 µg/mL, the Impurities [4] was 0.82 % (a/a) and the Assay [5] was 93.21 µg/mL. For the same compound, the Impurities [5] was 1.15 % (a/a), the Assay [6] was 93.12 µg/mL and the Impurities [6] was 0.74 % (a/a). For the same compound, the Assay [7] was 93.69 µg/mL, the Impurities [7] was 1.01 % (a/a) and the Assay [8] was 93.67 µg/mL. For the same compound, the Impurities [8] was 0.80 % (a/a), the Assay [9] was 92.32 µg/mL and the Impurities [9] was 0.63 % (a/a). For the same compound, the Assay [10] was 218.73 µg/mL, the Impurities [10] was 0.72 % (a/a) and the Assay [11] was 218.92 µg/mL. The Impurities [11] was 0.95 % (a/a), the Assay [12] was 219.23 µg/mL and the Impurities [12] was 0.68 % (a/a). The Assay [13] was 209.88 µg/mL, the Impurities [13] was 1.22 % (a/a) and the Assay [14] was 210.66 µg/mL. The Impurities [14] was 1.08 % (a/a), the Assay [15] was 190.68 µg/mL and the Impurities [15] was 1.54 % (a/a). For the same compound, the Assay [16] was 217.91 µg/mL, the Impurities [16] was 0.62 % (a/a) and the Assay [17] was 222.15 µg/mL. For the same compound, the Impurities [17] was 0.75 % (a/a), the Assay [18] was 226.12 µg/mL and the Impurities [18] was 0.85 % (a/a). For the same compound, the Assay [19] was 225.09 µg/mL, the Impurities [19] was 0.79 % (a/a) and the Assay [20] was 222.30 µg/mL. The Impurities [20] was 0.92 % (a/a), the Assay [21] was 213.85 µg/mL and the Impurities [21] was 1.58 % (a/a). The Assay [22] was 197.06 µg/mL, the Impurities [22] was 1.67 % (a/a) and the Assay [23] was 218.96 µg/mL. For the same compound, the Impurities [23] was 0.63 % (a/a), the Assay [24] was 216.81 µg/mL and the Impurities [24] was 0.53 % (a/a). The Assay [25] was 216.54 µg/mL, the Impurities [25] was 0.71 % (a/a) and the Assay [26] was 216.93 µg/mL. The Impurities [26] was 0.46 % (a/a), the Assay [27] was 215.81 µg/mL and the Impurities [27] was 0.57 % (a/a). For the same compound, the Assay [28] was 215.34 µg/mL, the Impurities [28] was 0.82 % (a/a) and the Assay [29] was 217.45 µg/mL. For the same compound, the Impurities [29] was 0.72 % (a/a), the Assay [30] was 214.85 µg/mL and the Impurities [30] was 0.58 % (a/a). For the same compound, the Assay [31] was 214.61 µg/mL, the Impurities [31] was 0.37 % (a/a) and the Assay [32] was 214.30 µg/mL. The Impurities [32] was 0.72 % (a/a), the Assay [33] was 214.68 µg/mL and the Impurities [33] was 0.49 % (a/a). For the same compound, the Assay [34] was 214.19 µg/mL, the Impurities [34] was 0.54 % (a/a) and the Assay [35] was 213.44 µg/mL. The Impurities [35] was 0.80 % (a/a), the Assay [36] was 215.45 µg/mL and the Impurities [36] was 0.67 % (a/a). For the same compound, the Assay [37] was 212.92 µg/mL, the Impurities [37] was 0.60 % (a/a) and the “sum of all impurities” value (storage temperature of 6° C., all compositions, up to 28 days) was “below 1 % (a/a)”.
